Key:
[1] = test system: Liver; test: Mean transit time of the compound in perfused liver of high-fat emulsion-induced nonalcoholic steatohepatitis Wistar rat at 4 mM after 10 mins; assay type: ADME, tissue-based; conditions: 4000 µM
[2] = Extraction ratio of the compound in perfused liver of high-fat emulsion-induced nonalcoholic steatohepatitis Wistar rat at 4 mM after 10 mins; assay type: ADME, tissue-based; conditions: read-out: ERH
[3] = Extraction ratio of the compound in healthy Wistar rat perfused liver at 4 mM after 10 mins; assay type: ADME, tissue-based; conditions: read-out: ERH
[4] = Octanol-water apparent partition coefficient, logD of the compound at pH 7.4; assay type: physicochemical
[5] = test system: Liver; test: Apparent distribution ratio of the compound in perfused liver of high-fat emulsion-induced nonalcoholic steatohepatitis Wistar rat at 4 mM after 10 mins; assay type: ADME, tissue-based; conditions: 4000 µM
[6] = test system: Liver; test: Apparent distribution ratio of the compound in healthy Wistar rat perfused liver at 4 mM after 10 mins; assay type: ADME, tissue-based; conditions: 4000 µM
[7] = test system: Liver; test: Mean transit time of the compound in healthy Wistar rat perfused liver at 4 mM after 10 mins; assay type: ADME, tissue-based; conditions: 4000 µM
[8] = Dissociation constant, pKa of the compound; assay type: physicochemical
[9] = test system: Liver; test: Apparent distribution ratio of the compound in perfused liver of high-fat emulsion-induced nonalcoholic steatohepatitis Wistar rat at 3 mM after 10 mins; assay type: ADME, tissue-based; conditions: 3000 µM
[10] = test system: Liver; test: Mean transit time of the compound in perfused liver of high-fat emulsion-induced nonalcoholic steatohepatitis Wistar rat at 3 mM after 10 mins; assay type: ADME, tissue-based; conditions: 3000 µM
[11] = test system: Liver; test: Drug distribution in healthy Wistar rat perfused liver assessed as equilibrium amount ratio charactering slow binding process at 3 mM after 10 mins; assay type: ADME, tissue-based; conditions: in vivo, 3000 µM
[12] = test system: Liver; test: Mean transit time of the compound in healthy Wistar rat perfused liver at 3 mM after 10 mins; assay type: ADME, tissue-based; conditions: 3000 µM
[13] = test system: Liver; test: Drug distribution in healthy Wistar rat perfused liver assessed as equilibrium amount ratio charactering fast binding process at 8 mM after 10 mins; assay type: ADME, tissue-based; conditions: in vivo, 8000 µM
[14] = test system: Liver; test: Drug distribution in perfused liver of high-fat emulsion-induced nonalcoholic steatohepatitis Wistar rat assessed as equilibrium amount ratio charactering fast binding process at 8 mM after 10 mins; assay type: ADME, tissue-based; conditions: in vivo, 8000 µM
[15] = test system: Liver; test: Mean transit time of the compound in perfused liver of high-fat emulsion-induced nonalcoholic steatohepatitis Wistar rat at 8 mM after 10 mins; assay type: ADME, tissue-based; conditions: 8000 µM
[16] = test system: Liver; test: Apparent distribution ratio of the compound in perfused liver of high-fat emulsion-induced nonalcoholic steatohepatitis Wistar rat at 8 mM after 10 mins; assay type: ADME, tissue-based; conditions: 8000 µM
[17] = test system: Liver; test: Drug distribution in perfused liver of high-fat emulsion-induced nonalcoholic steatohepatitis Wistar rat assessed as equilibrium amount ratio charactering slow binding process at 8 mM after 10 mins; assay type: ADME, tissue-based; conditions: in vivo, 8000 µM
[18] = test system: Liver; test: Drug distribution in healthy Wistar rat perfused liver assessed as equilibrium amount ratio charactering slow binding process at 8 mM after 10 mins; assay type: ADME, tissue-based; conditions: in vivo, 8000 µM
[19] = test system: Liver; test: Mean transit time of the compound in healthy Wistar rat perfused liver at 8 mM after 10 mins; assay type: ADME, tissue-based; conditions: 8000 µM
[20] = test system: Liver; test: Apparent distribution ratio of the compound in healthy Wistar rat perfused liver at 8 mM after 10 mins; assay type: ADME, tissue-based; conditions: 8000 µM
[21] = test system: Liver; test: Drug distribution in healthy Wistar rat perfused liver assessed as equilibrium amount ratio charactering fast binding process at 6 mM after 10 mins; assay type: ADME, tissue-based; conditions: in vivo, 6000 µM
[22] = test system: Liver; test: Drug distribution in perfused liver of high-fat emulsion-induced nonalcoholic steatohepatitis Wistar rat assessed as equilibrium amount ratio charactering slow binding process at 6 mM after 10 mins; assay type: ADME, tissue-based; conditions: in vivo, 6000 µM
[23] = test system: Liver; test: Drug distribution in healthy Wistar rat perfused liver assessed as equilibrium amount ratio charactering slow binding process at 6 mM after 10 mins; assay type: ADME, tissue-based; conditions: in vivo, 6000 µM
[24] = test system: Liver; test: Mean transit time of the compound in healthy Wistar rat perfused liver at 6 mM after 10 mins; assay type: ADME, tissue-based; conditions: 6000 µM
[25] = test system: Liver; test: Mean transit time of the compound in perfused liver of high-fat emulsion-induced nonalcoholic steatohepatitis Wistar rat at 6 mM after 10 mins; assay type: ADME, tissue-based; conditions: 6000 µM
[26] = test system: Liver; test: Apparent distribution ratio of the compound in perfused liver of high-fat emulsion-induced nonalcoholic steatohepatitis Wistar rat at 6 mM after 10 mins; assay type: ADME, tissue-based; conditions: 6000 µM
[27] = test system: Liver; test: Drug distribution in perfused liver of high-fat emulsion-induced nonalcoholic steatohepatitis Wistar rat assessed as equilibrium amount ratio charactering fast binding process at 6 mM after 10 mins; assay type: ADME, tissue-based; conditions: in vivo, 6000 µM
[28] = test system: Liver; test: Apparent distribution ratio of the compound in healthy Wistar rat perfused liver at 6 mM after 10 mins; assay type: ADME, tissue-based; conditions: 6000 µM
[29] = in vitro; conditions: Wistar, rat, perfused liver
Description: Extraction ratio of the compound in healthy Wistar rat perfused liver at 6 mM after 10 mins

[30] = in vitro; conditions: Wistar, rat, perfused liver; remark: listed apart in the source
Description: Extraction ratio of the compound in perfused liver of high-fat emulsion-induced nonalcoholic steatohepatitis Wistar rat at 6 mM after 10 mins

Cc1cc(=O)n(-c2ccccc2)n1C [ANTIPYRINE]
MTT [1]: 64.12 s
hepatic extraction ratio at 10 min, 4000 µM [2]: 0.08
hepatic extraction ratio at 10 min, 4000 µM [3]: 0.16
logD ([4]; read-out: LogD7.4): 0.33
K [5]: 4.5
K [6]: 2.67
MTT [7]: 46.46 s
pKa [8]: 1.45

COCCc1ccc(OCC(O)CNC(C)C)cc1 (stereo unspecified) [METOPROLOL]
K [9]: 11.97
LogD7.4 [4]: 1.79
MTT [10]: 67.43 s
K [11]: 2.27
MTT [12]: 60.26 s

CC(C)NCC(O)COc1ccc(CC(N)=O)cc1 (stereo unspecified) [ATENOLOL]
MTT [1]: 18.63 s
K [5]: 12.51
K [6]: 9.9
MTT [7]: 13.12 s

CC(C)NCC(O)COc1cccc2ccccc12 (stereo unspecified) [PROPRANOLOL]
K [13]: 1.96
K [14]: 0.38
MTT [15]: 70.99 s
K [16]: 16.31
K [17]: 5.35
K [18]: 13.59
MTT [19]: 58.14 s
K [20]: 10.76

CC(CCc1ccccc1)NCC(O)c1ccc(O)c(C(N)=O)c1 (stereo unspecified) [LABETALOL]
K [21]: 1.08
K [22]: 11.81
LogD7.4 [4]: 2.69
K [23]: 6.78
MTT [24]: 29.1 s
MTT [25]: 33.98 s
K [26]: 10.94
K [27]: 1.94
K [28]: 6.45
hepatic extraction ratio at 10 min, 6000 µM [29]: 0.86
hepatic extraction ratio at 10 min, 6000 µM [30]: 0.79
